# Results published in patent US20080227801A1, “Pharmaceutical Compositions Containing Erythrina Mulungu Derivatives, Processes for their Production and Uses Thereof” (priority 2005, published 2008).
# Values joined by “and” are separate entries in the source; they are usually repeats but may differ in a detail not shown here. Equal values may be shown once. “Also recorded” adds a separate entry of the source.
# Key:
# Format in all cases: in vivo, Swiss mice
# house mice = test: Labyrinth in high T (elevated T maze) test; design: key to Escape: latency in seconds (maximum 300 s); details: for Escape / Inhibitory avoidance E1 / Inhibitory avoidance E2 / Inhibitory avoidance E3 / Inhibitory avoidance E4 / Inhibitory avoidance LB (basal latency): acute, mean ± EPM; for Anxiolytic effect in Labyrinth in high T (in words): 3 and 10 mg/kg, oral via
# Experimental: Swiss mice weighing 25-35 g from the central animal laboratory of the Sao Paulo State University (UNESP/Araraquara) were used.
# Accordingly, lyophilized hydroalcoholic extract (50, 100, 200 and 400 mg/kg) was used, in addition to F2 (3, 6, 10, 17 and 30 mg/kg) and the alkaloids erythrartine, erythravine and 11-OH-erythravine (3 and 10 mg/kg), administered via oral intake by gavage. The standard drug used was Diazepam (DZP) in a dose of 2 mg/kg (via intraperitoneal, i.p).
# The Labyrinth in high T is made with transparent glass walls and wooden floor and consists of a closed arm (30×5×15 cm) perpendicularly linked to two open arms (30×5×0.25 cm), raised at 38.5 cm above the floor by a wooden support. In this test, five consecutive measures of inhibitory avoidance were performed (basal latency, avoidances 1, 2, 3 and 4) and one measure of escape from the open arms, with intervals of 30 seconds between each attempt. In the avoidance measures, the animals were placed in the distal section of the closed arm and the exit latency of this arm, on all four paws, towards the open arm was timed. In the escape measure, the animals were placed in the extremity of the right-hand open arm and the departure time from this arm was measured. The animals' maximum length of stay in the arms of the maze during these measures was 300 seconds. The apparatus was cleaned with ethanol 20% after testing each animal.
# The results obtained from the Labyrinth in high T submitted to a two-way analysis of variance (ANOVA), with treatment being an independent factor and attempts being a dependent factor.
# house mouse [1] = test: Locomotion activity test in the arena
# From the text: In order to avoid false positives or negatives, immediately after testing in the elevated T maze, the animals were submitted to the locomotive activity test in the arena.
# The apparatus consists of a white polypropylene box with a rectangular base (40×48 cm), surrounded by 30 cm high walls. The floor is subdivided into 30 squares (8×8 cm).
# In this test, the animals were placed in the center of the box and their activity was video recorded for five minutes, for subsequent analysis of the number of crossings of the quadrant areas and number of stretch-attend postures (WALSH and CUMMINS, 1976).
# The results obtained with the arena were submitted to a one-way ANOVA followed by the Duncan post hoc test.
# house mouse [2] = test: Clear-dark (light/dark) transition model; details: for Number of transitions between two compartments / Time spent in illuminated compartment: acute, mean ± EPM; for Effect on time spent in illuminated compartment (in words): versus control; for Anxiolytic effect in clear-dark model transition (in words): oral via, doses of 3 and 10 mg/kg
# [3] = 2 mg/kg i.p., acute, five minutes, mean ± EPM
# [4] = 3 and 10 mg/kg oral, one-way ANOVA
smiles,measurement,setting,value
"COc1cc2c(cc1OC)[C@]13C[C@@H](O)C=CC1=CCN3C[C@H]2O [11-OH, 11-hydroxy-erythravine]",Escape,house mice; 3 mg/kg oral,21.5 ± 3.7
same,Inhibitory avoidance E1,house mice; 3 mg/kg oral,41.8 ± 14.2
same,Inhibitory avoidance E2,house mice; 3 mg/kg oral,96.0 ± 34.4
same,Inhibitory avoidance E3,house mice; 3 mg/kg oral,132.3 ± 39.7
same,Inhibitory avoidance E4,house mice; 3 mg/kg oral,194.4 ± 39.5
same,Inhibitory avoidance LB (basal latency),house mice; 3 mg/kg oral,30.7 ± 5.8
same,Escape,house mice; 10 mg/kg oral,26.8 ± 4.8
same,Inhibitory avoidance E1,house mice; 10 mg/kg oral,30.0 ± 6.1
same,Inhibitory avoidance E2,house mice; 10 mg/kg oral,54.0 ± 21.1
same,Inhibitory avoidance E3,house mice; 10 mg/kg oral,66.6 ± 30.3
same,Inhibitory avoidance E4,house mice; 10 mg/kg oral,94.8 ± 31.7
same,Inhibitory avoidance LB (basal latency),house mice; 10 mg/kg oral,22.6 ± 3.5
same,Anxiolytic effect in Labyrinth in high T (in words),house mice,anxiolytic effect
same,Response on the locomotion activity test at the arena (in words),house mouse [1]; 3 mg/kg,did not have an increase of the response
same,Number of transitions between two compartments,house mouse [2]; 3 mg/kg oral,22.67 ± 2.66
same,Time spent in illuminated compartment,house mouse [2]; 3 mg/kg oral,98.67 ± 13.35
same,Number of transitions between two compartments,house mouse [2]; 10 mg/kg oral,14.00 ± 1.93
same,Time spent in illuminated compartment,house mouse [2]; 10 mg/kg oral,127.22 ± 21.83
same,Effect on number of transitions between two compartments (in words),"house mouse [2]; dose of 3 mg/kg, P<0.05, listed as 11-hidroxi-erhytravine, 3 mg/kg",increased the transitions
same,Effect on number of transitions between two compartments (in words),"house mouse [2]; dose of 3 mg/kg, P<0.05, listed as 11-hidroxi-erythravine, 3 mg/kg",increased
same,Effect on time spent in illuminated compartment (in words),"house mouse [2]; dose of 10 mg/kg, listed as 11-hidroxi-erhytravine, 10 mg/kg",anxiolytic effect
same,Effect on time spent in illuminated compartment (in words),"house mouse [2]; dose of 10 mg/kg, listed as 11-hidroxi-erythravine, 10 mg/kg",increased expressively
same,Anxiolytic effect in clear-dark model transition (in words),house mouse [2],anxiolytic effect
"CN1C(=O)CN=C(c2ccccc2)c2cc(Cl)ccc21 [DZP, Diazepam, reference compound]",Escape,house mice; 2 mg/kg i.p.,19.0 ± 3.2 and 28.4 ± 7.1 and 27.1 ± 4.6
same,Inhibitory avoidance E1,house mice; 2 mg/kg i.p.,15.3 ± 3.8 and 19.1 ± 4.0 and 11.4 ± 1.4
same,Inhibitory avoidance LB (basal latency),house mice; 2 mg/kg i.p.,24.6 ± 4.1 and 25.4 ± 4.1 and 25.6 ± 5.9
same,Mixings,house mouse [1]; [3],167.4 ± 23.6 and 169.11 ± 33.2
same,Raisings,house mouse [1]; [3],27.33 ± 2.3 and 21.11 ± 6.7
same,Number of transitions between two compartments,house mouse [2]; 2 mg/kg i.p.,20.10 ± 2.93 and 13.92 ± 1.34 and 17.42 ± 2.40
same,Time spent in illuminated compartment,house mouse [2]; 2 mg/kg i.p.,144.20 ± 17.52 and 130.00 ± 16.76 and 140.67 ± 18.59
same,Effect on time spent in illuminated compartment (in words),house mouse [2]; DZP 2 mg/kg,expressively greater; also recorded: increased expressively; also recorded: observed only for the animals group treated with DZP
"COc1cc2c(cc1OC)[C@]13C[C@@H](O)C=CC1=CCN3CC2 [ERI, erythravine]",Anxiolytic effect in Labyrinth in high T (in words),house mice,anxiolytic effect
same,Number of transitions between two compartments,house mouse [2]; 3 mg/kg oral,19.70 ± 2.96
same,Time spent in illuminated compartment,house mouse [2]; 3 mg/kg oral,115.40 ± 18.58
same,Number of transitions between two compartments,house mouse [2]; 10 mg/kg oral,19.80 ± 1.32
same,Time spent in illuminated compartment,house mouse [2]; 10 mg/kg oral,112.00 ± 10.95
same,Effect on number of transitions between two compartments (in words),house mouse [2]; [4],did not show significant differences between groups
same,Effect on time spent in illuminated compartment (in words),house mouse [2]; oral doses of 3 mg/kg and 10 mg/kg,expressively greater; also recorded: anxiolytic effect
same,Anxiolytic effect in clear-dark model transition (in words),house mouse [2],anxiolytic effect
"COc1cc2c(cc1OC)[C@]13C[C@@H](OC)C=CC1=CCN3C[C@H]2O [ERIT, erythrartine]",Anxiolytic effect in Labyrinth in high T (in words),house mice,anxiolytic effect
same,Number of transitions between two compartments,house mouse [2]; 3 mg/kg oral,13.00 ± 1.56
same,Time spent in illuminated compartment,house mouse [2]; 3 mg/kg oral,67.67 ± 8.33
same,Number of transitions between two compartments,house mouse [2]; 10 mg/kg oral,14.25 ± 1.59
same,Time spent in illuminated compartment,house mouse [2]; 10 mg/kg oral,83.42 ± 14.17
same,Effect on number of transitions between two compartments (in words),house mouse [2]; [4],did not show signified effect
